# Legend:
# Format in all cases: physicochemical
# [1] = Dynamic vapor sorption (DVS)
# Description: About 20 mg of the crystalline form was transferred into a dynamic vapor sorption instrument from Surface Measurement Systems Ltd. (SMS). The weight change was recorded relative to the relative humidity (Target RH %) at 25° C.
# Crystalline Forms A and J were analyzed by dynamic vapor sorption (DVS) according to the conditions described in the General Procedures.
# [2] = Hygroscopicity of forms from the polymorph preparations (method not given)
# [3] = VT-PXRD analysis of form change
# [4] = Thermogravimetric analysis (TGA); details: heating 10° C./min, nitrogen
# Description: TA INSTRUMENT® models Q5000, Q500, or 2950 were used to generate TGA data. The measurement was made using standard TA Instruments Platinum pans. The measurement was made at a heating rate of 10° C./min, in a nitrogen environment from room temperature to 300° C., with a sample size about 10-30 mg.
# Crystalline Forms A and J were analyzed by thermogravimetric analysis (TGA) according to the conditions described in the General Procedures. Exemplary TGA thermograms for Forms A and J are shown in FIGS. 4 and 13D, respectively.
structure (smiles),measurement,setting,value
"C[C@@H]1CCC[C@H](n2cnc(-c3cc(Cl)ccc3-n3cc(Cl)nn3)cc2=O)c2cc(ccn2)-c2c(cnn2C(F)F)NC1=O [Form A, (9R,13S)-13-{4-[5-chloro-2-(4-chloro-1H-1,2,3-triazol-1-yl)phenyl]-6-oxo-1,6-dihydropyrimidin-1-yl}-3-(difluoromethyl)-9-methyl-3,4,7,15-tetraazatricyclo[12.3.1.0^2,6]octadeca-1(18),2(6),4,14,16-pentaen-8-one]",change of crystalline form after being subjected to DVS conditions,[1]; PXRD and IR post-DVS analysis,did not change
same,hygroscopicity indicated by DVS analysis,[1]; weight change vs relative humidity at 25° C.,not hygroscopic
"C[C@@H]1CCC[C@H](n2cnc(-c3cc(Cl)ccc3-n3cc(Cl)nn3)cc2=O)c2cc(ccn2)-c2c(cnn2C(F)F)NC1=O [Form C, (9R,13S)-13-{4-[5-chloro-2-(4-chloro-1H-1,2,3-triazol-1-yl)phenyl]-6-oxo-1,6-dihydropyrimidin-1-yl}-3-(difluoromethyl)-9-methyl-3,4,7,15-tetraazatricyclo[12.3.1.0^2,6]octadeca-1(18),2(6),4,14,16-pentaen-8-one]",hygroscopicity,[2],non-hygroscopic
same,change in form on VT-PXRD analysis,[3],no change in form
"C[C@@H]1CCC[C@H](n2cnc(-c3cc(Cl)ccc3-n3cc(Cl)nn3)cc2=O)c2cc(ccn2)-c2c(cnn2C(F)F)NC1=O [Form J, (9R,13S)-13-{4-[5-chloro-2-(4-chloro-1H-1,2,3-triazol-1-yl)phenyl]-6-oxo-1,6-dihydropyrimidin-1-yl}-3-(difluoromethyl)-9-methyl-3,4,7,15-tetraazatricyclo[12.3.1.0^2,6]octadeca-1(18),2(6),4,14,16-pentaen-8-one]",loss of weight in TGA,[4]; below about 250° C.,no significant loss of weight
same,onset of decomposition in TGA,[4],about 281 °C

# Source: patent US20230151010A1, “CRYSTALLINE FORMS OF (9R, 135S)-13- {4-[5-CHLORO-2-(4-CHLORO-1H,2,3- TRIAZOL- 1 -YL)PHENYL] -6-OXO- 1,6-DIHYDROPYRIMIDIN- 1-YL}-3-(DIFLUOROMETHYL)-9-METHYL-3,4,7,15- TETRAAZATRICYCLO [ 12.3.1.0 2·6] OCTADECA- 1(18), 2(6), 4, 14, 16-PENTAEN-8-ONE” (Bristol-Myers Squibb Company, priority 2020, published 2023)
